Test results taken from ChEMBL document CHEMBL3714755, “Pyridinyl amides as P2X3 and P2X2/3 inhibitors” (2014).
Calls of active or inactive are those of the source. The rule behind the calls is not given here.

Target: P2X2/P2X3 heterotrimeric receptor (Homo sapiens) (UniProt Q9UBL9+P56373)
Experiment: Antagonist activity against human P2X2/3 receptor expressed in CHOK1 cells assessed as inhibition of alpha,beta-meATP-induced calcium response incubated for 20 mins by Fluo-3AM dye based FLIPR assay
Assay type: functional, cell-based
Settings: CHO-K1

| Structure (SMILES) | inhibition |
| --- | --- |
| COCC(C)NC(=O)c1cc(NC(=O)c2ccc(C)cc2C)cc(-c2ccc(C)cc2)c1 (configuration not stated) | Active |
| COCC(C)NC(=O)c1cc(NC(=O)c2cscc2OC)cc(-c2ccc(C)cc2)c1 (configuration not stated) | Active |
| Cc1ccc(-c2cc(C(=O)N[C@@H](C)CO)cc(N(C)C(=O)C3CCCC3)c2)cc1 | Active |
| COCC(C)NC(=O)c1cc(NC(=O)c2ccc(C(F)(F)F)cc2Cl)cc(-c2ccc(C)cc2)c1 (configuration not stated) | Active |
| COC[C@@H](C)NC(=O)c1cc(-c2ccc(Cl)cc2Cl)cc(N(C)C(=O)C(C)C)c1 | Active |
| CCC(C)C(=O)N(C)c1cc(C(=O)N[C@@H](C)CO)cc(-c2ccc(C)cc2)c1 (some centres not stated) | Active |
| CC(NC(=O)c1cc(-c2ccc(Cl)cc2)cc(N(C)C(=O)N2CCOCC2)c1)c1cnccn1 (configuration not stated) | Active |
| Cc1ccc(-c2cc(NC(=O)C(C)C)cc(C(=O)NC(C)c3cnccn3)c2)cc1 (configuration not stated) | Active |
| CCN(C(=O)c1ccncc1)c1cc(C(=O)NC(C)COC)cc(-c2ccc(C)cc2)c1 (configuration not stated) | Active |
| COCC(C)NC(=O)c1cc(NC(=O)c2ccc(C)s2)cc(-c2ccc(C)cc2)c1 (configuration not stated) | Active |
| CC(C)C(=O)N(C)c1cc(C(=O)N[C@@H](C)CO)cc(-c2ccc(Cl)cn2)c1 | Active |
| CCN(C(=O)c1cccnc1)c1cc(C(=O)NC(C)c2cnccn2)cc(-c2ccc(C)cc2)c1 (configuration not stated) | Active |
| Cc1ccc(-c2cc(C(=O)N[C@@H](C)CO)cc(N(C)C(=O)C(C)C)c2)cc1 | Active |
| COCC(C)NC(=O)c1cc(NC(=O)c2ccccn2)cc(-c2ccc(C)cc2)c1 (configuration not stated) | Active |
| CCN(C(=O)C1CCOCC1)c1cc(C(=O)NC(C)c2cnccn2)cc(-c2ccc(C)cc2)c1 (configuration not stated) | Active |
| CCNC(=O)N(C)c1cc(C(=O)NC(C)c2cnccn2)cc(-c2ccc(Cl)cc2)c1 (configuration not stated) | Active |
| Cc1ccc(-c2cc(C(=O)NC(C)c3cnccn3)cc(N(C)C(=O)C(C)(C)C)c2)cc1 (configuration not stated) | Active |
| COCC(C)NC(=O)c1cc(NC(=O)C2CCCCC2)cc(-c2ccc(C)cc2)c1 (configuration not stated) | Active |
| CC(=O)N1CCC(C(=O)N(C)c2cc(C(=O)NC(C)c3cnccn3)cc(-c3ccc(C)cc3)c2)CC1 (configuration not stated) | Active |
| COCC(C)NC(=O)c1cc(NC(=O)c2cc(C)on2)cc(-c2ccc(C)cc2)c1 (configuration not stated) | Active |
| CCN(C(=O)CC(C)C)c1cc(C(=O)NC(C)CO)cc(-c2ccc(C)cc2)c1 (configuration not stated) | Active |
| COCC(C)NC(=O)c1cc(NC(=O)c2cccs2)cc(-c2ccc(C)cc2)c1 (configuration not stated) | Active |
| CC(NC(=O)c1cc(-c2ccc(Cl)cc2)cc(N(C)C(=O)N(C)C)c1)c1cnccn1 (configuration not stated) | Active |
| Cc1ccc(-c2cc(C(=O)NC(C)c3cnccn3)cc(N(C)C(=O)C3CCCCC3)c2)cc1 (configuration not stated) | Active |
| CCN(C(=O)OC)c1cc(C(=O)NC(C)c2cnccn2)cc(-c2ccc(C)cc2)c1 (configuration not stated) | Active |

| Structure (SMILES) | inhibition |
| --- | --- |
| COCC(C)NC(=O)c1cc(NC(=O)c2nc(C)oc2C)cc(-c2ccc(C)cc2)c1 (configuration not stated) | Active |
| CCC(C)(C)C(=O)N(C)c1cc(C(=O)NC(C)c2cnccn2)cc(-c2ccc(C)cc2)c1 (configuration not stated) | Active |
| CCN(C(C)=O)c1cc(C(=O)NC(C)c2cnccn2)cc(-c2ccc(C)cc2)c1 (configuration not stated) | Active |
| Cc1ccc(-c2cc(C(=O)NC(C)c3cnccn3)cc(N(C(=O)C(C)C)c3ccncn3)c2)cc1 (configuration not stated) | Active |
| COCC(C)NC(=O)c1cc(NC(=O)c2ccc(F)cc2Cl)cc(-c2ccc(C)cc2)c1 (configuration not stated) | Active |
| CCC(=O)N(C)c1cc(C(=O)N[C@H](C)CN2CCOCC2)cc(-c2ccc(C)cc2)c1 | Active |
| COCC(C)NC(=O)c1cc(NC(=O)c2ccccc2)cc(-c2ccc(C)cc2)c1 (configuration not stated) | Active |
| COCC(C)NC(=O)c1cc(NC(=O)c2ccco2)cc(-c2ccc(C)cc2)c1 (configuration not stated) | Active |
| COCC(C)NC(=O)c1cc(NC(=O)c2cscn2)cc(-c2ccc(C)cc2)c1 (configuration not stated) | Active |
| CCC(=O)N(C)c1cc(C(=O)NC(C)COC)cc(-c2ccc(C)cc2)c1 (configuration not stated) | Active |
| Cc1ccc(-c2cc(C(=O)NC(C)c3cnccn3)cc(N(C)C(=O)C3CCCC3)c2)cc1 (configuration not stated) | Active |
| CCN(C(=O)C(C)C)c1cc(C(=O)N[C@@H](C)CO)cc(-c2ccc(C)cc2)c1 | Active |
| CCN(C(=O)COC)c1cc(C(=O)NC(C)c2cnccn2)cc(-c2ccc(C)cc2)c1 (configuration not stated) | Active |
| COCC(C)NC(=O)c1cc(NC(=O)c2cc(C)cs2)cc(-c2ccc(C)cc2)c1 (configuration not stated) | Active |
| CCN(C(=O)CC(C)C)c1cc(C(=O)NC(C)c2cnccn2)cc(-c2ccc(C)cc2)c1 (configuration not stated) | Active |
| COCC(C)NC(=O)c1cc(NC(=O)c2sccc2C)cc(-c2ccc(C)cc2)c1 (configuration not stated) | Active |
| CCN(C(=O)OC(C)C)c1cc(C(=O)NC(C)c2cnccn2)cc(-c2ccc(C)cc2)c1 (configuration not stated) | Active |
| Cc1ccc(-c2cc(C(=O)NC(C)c3cnccn3)cc(N(C)C(=O)C3CCOCC3)c2)cc1 (configuration not stated) | Active |
| CC(=O)N(c1cc(C(=O)NC(C)c2cnccn2)cc(-c2ccc(C)cc2)c1)c1ccncn1 (configuration not stated) | Active |
| CCC(=O)N(c1cc(C(=O)NC(C)c2cnccn2)cc(-c2ccc(C)cc2)c1)c1ccncn1 (configuration not stated) | Active |
| COCC(C)NC(=O)c1cc(NC(=O)c2c(-c3ccccc3)noc2C)cc(-c2ccc(C)cc2)c1 (configuration not stated) | Active |
| CCN(c1cc(C(=O)NC(C)c2cnccn2)cc(-c2ccc(C)cc2)c1)c1cnccn1 (configuration not stated) | Active |
| CCN(C(=O)OCC(C)C)c1cc(C(=O)NC(C)c2cnccn2)cc(-c2ccc(C)cc2)c1 (configuration not stated) | Active |
| COCC(C)NC(=O)c1cc(NC(=O)c2cc(C)nn2C)cc(-c2ccc(C)cc2)c1 (configuration not stated) | Active |

Now from value to compound:

| inhibition | Structure (SMILES) |
| --- | --- |
| Active | Cc1ccc(-c2cc(C(=O)NC(C)c3cnccn3)cc(N(C)C(=O)C(C)C)c2)c(Cl)c1 (configuration not stated) |
| Active | COCC(=O)N(C)c1cc(C(=O)NC(C)c2cnccn2)cc(-c2ccc(C)cc2)c1 (configuration not stated) |
| Active | CC(C)C(=O)N(C)c1cc(C(=O)NC(C)c2cnccn2)cc(-c2ccc(Cl)cn2)c1 (configuration not stated) |
| Active | Cc1ccc(-c2cc(C(=O)N[C@@H](C)CO)cc(N(C)C(=O)C(C)C)c2)c(F)c1 |
| Active | Cc1ccc(-c2cc(C(=O)N[C@@H](C)CO)cc(N(C)C(=O)C(C)C)c2)c(Cl)c1 |
| Active | Cc1ccc(-c2cc(C(=O)NC(C)c3cnccn3)cc(N(C)C(=O)C(C)C)c2)c(F)c1 (configuration not stated) |
| Active | Cc1ccc(-c2cc(C(=O)NC(C)c3cnccn3)cc(N(C)C(=O)C(C)C)c2)cc1 (configuration not stated) |
| Active | Cc1ccc(-c2cc(C(=O)NCc3cnc(C)cn3)cc(N(C)C(=O)C(C)C)c2)nc1 |
| Active | Cc1ccc(-c2cc(C(=O)NC(C)c3cnccn3)cc(N(C)C(=O)c3snnc3C)c2)cc1 (configuration not stated) |
| Active | Cc1ccc(-c2cc(C(=O)N[C@@H](C)CO)cc(N(C)C(=O)C(C)C)c2)nc1 |
| Active | CC(=O)N(C)c1cc(C(=O)NC(C)c2cnccn2)cc(-c2ccc(C)cc2)c1 (configuration not stated) |
| Active | Cc1ccc(-c2cc(C(=O)NCc3cnccn3)cc(N(C)C(=O)C(C)C)c2)c(Cl)c1 |
| Active | Cc1ccc(-c2cc(C(=O)NCc3cnccn3)cc(N(C)C(=O)C(C)C)c2)cc1 |
| Active | COC[C@@H](C)NC(=O)c1cc(-c2ccc(F)cc2F)cc(N(C)C(=O)C(C)C)c1 |
| Active | CCC(C)C(=O)N(C)c1cc(C(=O)NC(C)c2cnccn2)cc(-c2ccc(C)cc2)c1 (configuration not stated) |
| Active | Cc1ccc(-c2cc(C(=O)NCc3cnc(C)cn3)cc(N(C)C(=O)C3(C)COC3)c2)nc1 |
| Active | Cc1ccc(-c2cc(C(=O)NCc3cnccn3)cc(N(C)C(=O)C(C)C)c2)c(F)c1 |
| Active | CCC(CC)C(=O)N(C)c1cc(C(=O)NC(C)c2cnccn2)cc(-c2ccc(C)cc2)c1 (configuration not stated) |
| Active | CC(C)C(=O)N(C)c1cc(C(=O)NCc2cnccn2)cc(-c2ccc(Cl)cn2)c1 |
| Active | CC(C)C(=O)N(C)c1cc(C(=O)NC(C)c2cnccn2)cc(-c2ccc(F)cc2F)c1 (configuration not stated) |
| Active | CC(C)C(=O)N(C)c1cc(C(=O)NC(C)c2cnccn2)cc(-c2ccc(Cl)cc2Cl)c1 (configuration not stated) |
| Active | Cc1ccc(-c2cc(C(=O)NC(C)c3cnccn3)cc(N(C)C(=O)C(C)C)c2)nc1 (configuration not stated) |
| Active | CCN(C(=O)C(C)C)c1cc(C(=O)NC(C)c2cnccn2)cc(-c2ccc(C)cc2)c1 (configuration not stated) |
